Measurements: patent US11279690B2, “Inhibitors of glutaminyl cyclase” (VIVORIAN THERAPEUTICS N.V, priority 2017, dated 2022)
pKi: −log10 of the molar value.

What was measured:
hQPCTL = hQPCTL (Homo sapiens, UniProt Q9NXS2); assay: Inhibitor assay, determination of Ki against the QC isoenzyme at pH 6; type: biochemical; conditions: read-out: Ki hQPCTL pH6
Method: (§1) For inhibitor testing, the sample composition was the same as described above, except of the putative inhibitory compound added. For a rapid test of QC-inhibition, samples contained 4 mM of the respective inhibitor and a substrate concentration at 1 KM. For detailed investigations of the inhibition and determination of Ki-values, influence of the inhibitor on the auxiliary enzymes was investigated first. […] The inhibitory constant was evaluated by fitting the set of progress curves to the general equation for competitive inhibition using GraFit software. The inhibitor assay was performed at two different pH levels, pH 6.0 and pH 8.0: The respective pH value in the assay solution was adjusted using conventional methods.

hQC = hQC (Homo sapiens, UniProt Q16769); assay: QC inhibitor assay, determination of Ki at pH 6.0; type: biochemical; conditions: read-out: Ki hQC pH6.0
Method: All measurements were performed with a BioAssay Reader HTS-7000Plus for microplates (Perkin Elmer) at 30° C. QC activity was evaluated fluorometrically using H-Gln-βNA. The samples consisted of 0.2 mM fluorogenic substrate, 0.25 U pyroglutamyl aminopeptidase (Unizyme, Horsholm, Denmark) in 0.2 M Tris/HCl, pH 8.0 containing 20 mM EDTA and an appropriately diluted aliquot of QC in a final volume of […]. Excitation/emission wavelengths were 320/410 nm. The assay reactions were initiated by addition of glutaminyl cyclase. QC activity was determined from a standard curve of β-naphthylamine under assay conditions. One unit is defined as the amount of QC catalyzing the formation of 1 μmol pGlu-βNA from H-Gln-βNA per minute under the described conditions.
In a second fluorometric assay, QC was activity determined using H-Gln-AMC as substrate. Reactions were carried out at 30° C. utilizing the NOVOStar reader for microplates (BMG labtechnologies). The samples consisted of varying concentrations of the fluorogenic substrate, 0.1 U pyroglutamyl aminopeptidase (Qiagen) in 0.05 M Tris/HCl, pH 8.0 containing 5 mM EDTA and an appropriately diluted aliquot of QC in a final volume of 250 μl. Excitation/emission wavelengths were 380/460 nm. The assay reactions were initiated by addition of glutaminyl cyclase. QC activity was determined from a standard curve of 7-amino-4-methylcoumarin under assay conditions. The kinetic data were evaluated using GraFit software.
This novel assay was used to determine the kinetic parameters for most of the QC substrates. […] Samples consisted of the respective QC substrate, 0.3 mM NADH, 14 mM α-Ketoglutaric acid and 30 U/ml glutamate dehydrogenase in a final volume of 250 μl. Reactions were started by addition of QC and persued by monitoring of the decrease in absorbance at 340 nm for 8-15 min.
The initial velocities were evaluated and the enzymatic activity was determined from a standard curve of ammonia under assay conditions. All samples were measured at 30° C., using either the […]luor Plus or the Sunrise (both from TECAN) reader for microplates. Kinetic data was evaluated using GraFit software.
as §1

[1] = Pharmacokinetic parameters in mice, plasma, brain and CSF after oral administration; type: in vivo, mice (strain CD-1); conditions: mice (CD-1), 30 mg/kg orally in 0.8% Methocel
Method: Three mice (strain CD-1) were administered orally 30 mg/kg of each test compound dissolved in 0.8% Methocel. Samples were taken at the time points 10 min, 0.5, 1, 2, 4 and 8 hr after test compound administration for plasma and brain collection.
The mice were anesthetized with Isoflurane. Approximate […] of each blood sample were collected via cardiac puncture for terminal bleeding into K2EDTA tubes. Blood samples were put on ice and centrifuged at 2000 g for 5 min to obtain plasma sample within 15 minutes. CSF collection: The animals were euthanized with pure CO2 inhalation. A mid line incision was made on the neck. The muscle under the skin was cut to expose the cisterna magna. The cisterna magna was penetrated with the sharp end of a capillary and CSF was collected via capillarity.
After CSF collection, a perfusion with 7x total mouse blood volume (approximate 15 ml) of ice-cold PBS (pH 7.4) was conducted via cardiac puncture before brain collection. A mid-line incision was made in the animal scalp. The brain was removed and rinsed with cold saline. Brain was placed into a screw-top tube and weighed. Brain samples were homogenized for 2 min with 3 volumes (v/w) of PBS (pH 7.4) and then analyzed with LC-MS/MS. The brain concentration was corrected with a dilution factor of 4 as following: Brain concentration=brain homogenate conc.×4, assuming 1 g wet brain tissue equals to 1 ml.
Plasma, brain and CSF samples were stored at approximately −80° C. until analysis.
For plasma samples: An aliquot of 20 μl sample was added with 200 μ IS (Diclofenac, 200 ng/mL) in ACN, the mixture was vortexed for 2 min and centrifuged at 12.000 rpm for 5 min. 1 μl supernatant was injected for LC-MS/MS analysis.
For diluted plasma samples: An aliquot of 4 μl sample was added with 16 μl blank plasma, mixed well, added with 200 μl IS (Diclofenac, 200 ng/ml) in ACN.
For Brain samples: Brain tissue was homogenized for 2 min with 3 volumes (v/w) of PBS. An aliquot of 20 μl sample was added with 200 μl IS (Diclofenac, 200 ng/ml) in ACN, the mixture was vortexed for 2 min and centrifuged at 12000 rpm for 5 min. 1 μl supernatant was injected for LC-MS/MS analysis.
For CSF samples: The CSF sample was added with corresponding 20 fold volume of IS (Diclofenac, 200 ng/ml) in ACN, the mixture was vortexed for 2 min. 3 μl supernatant was injected for LC-MS/MS analysis.

Sequence of hQPCTL (Q9NXS2 whole entry): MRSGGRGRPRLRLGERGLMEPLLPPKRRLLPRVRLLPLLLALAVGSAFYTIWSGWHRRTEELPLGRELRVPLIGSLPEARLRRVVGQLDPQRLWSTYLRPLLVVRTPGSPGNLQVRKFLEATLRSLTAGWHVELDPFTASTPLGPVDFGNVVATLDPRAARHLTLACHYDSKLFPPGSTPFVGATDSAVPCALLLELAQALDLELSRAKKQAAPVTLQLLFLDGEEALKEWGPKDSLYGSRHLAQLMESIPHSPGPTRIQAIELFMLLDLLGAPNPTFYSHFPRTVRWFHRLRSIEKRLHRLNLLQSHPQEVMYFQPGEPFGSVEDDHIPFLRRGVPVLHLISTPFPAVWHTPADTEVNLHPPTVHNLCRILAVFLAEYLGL
Sequence of hQC (Q16769 29-361): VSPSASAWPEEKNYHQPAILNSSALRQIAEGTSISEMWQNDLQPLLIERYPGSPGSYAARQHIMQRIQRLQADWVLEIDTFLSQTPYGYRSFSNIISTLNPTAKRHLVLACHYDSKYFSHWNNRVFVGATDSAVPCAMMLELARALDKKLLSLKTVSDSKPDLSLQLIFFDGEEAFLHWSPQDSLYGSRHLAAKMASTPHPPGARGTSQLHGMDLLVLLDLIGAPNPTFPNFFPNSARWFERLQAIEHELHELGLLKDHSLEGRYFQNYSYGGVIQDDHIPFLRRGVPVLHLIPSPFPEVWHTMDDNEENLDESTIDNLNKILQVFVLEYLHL

Compound | pKi (hQPCTL) | pKi (hQC) | blood-brain-barrier crossing behaviour [1] | AUC-values in the brain [1] | melting point [°C]
O=C1CC(c2ccccc2)N1c1ccc2[nH]cnc2c1 (racemic) [Example 1, 1-(1H-benzo[d]imidazol-5-yl)-4-phenylazetidin-2-one] | 7.48 | 6.77 | – | – | –
COc1cc(F)c(C2CC(=O)N2c2ccc3nc[nH]c3c2)c(F)c1 (racemic) [Example 4, 1-(1H-benzo[d]imidazol-5-yl)-4-(2,6-difluoro-4-methoxyphenyl)azetidin-2-one] | 8.60 | 8.07 | good | good | –
O=C1C[C@H](c2ccccc2)N1c1ccc2nc[nH]c2c1 [Example 2, (R)-1-(1H-benzo[d]imidazol-6-yl)-4-phenylazetidin-2-one] | 8.16 | 7.68 | – | – | –
O=C1C[C@H](c2ccc(OCCC(F)F)cc2F)N1c1ccc2[nH]cnc2c1 [Example 5, (R)-4-(4-(3,3-difluoropropoxy)-2-fluorophenyl)-1-(1H-benzo[d]imidazol-5-yl)azetidin-2-one] | 9.07 | 8.48 | good | good | 150 to 155
O=C1C[C@@H](c2ccc(OCCC(F)F)cc2F)N1c1ccc2[nH]cnc2c1 [Example 6, (S)-4-(4-(3,3-difluoropropoxy)-2-fluorophenyl)-1-(1H-benzo[d]imidazol-5-yl)azetidin-2-one] | – | – | – | – | 137 to 142
O=C1C[C@H](c2ccc(OCCC(F)F)c(F)c2F)N1c1ccc2[nH]cnc2c1 [Example 7, (R)-4-(4-(3,3-difluoropropoxy)-2,3-difluorophenyl)-1-(1H-benzo[d]imidazol-5-yl)azetidin-2-one] | 8.96 | 8.62 | good | good | 165 to 170
O=C1C[C@@H](c2ccc(OCCC(F)F)c(F)c2F)N1c1ccc2[nH]cnc2c1 [Example 8, (S)-4-(4-(3,3-difluoropropoxy)-2,3-difluorophenyl)-1-(1H-benzo[d]imidazol-5-yl)azetidin-2-one] | – | – | – | – | 148 to 153
O=C1C[C@H](c2c(F)cc(OCCC(F)F)cc2F)N1c1ccc2[nH]cnc2c1 [Example 9, (R)-4-(4-(3,3-difluoropropoxy)-2,6-difluorophenyl)-1-(1H-benzo[d]imidazol-5-yl)azetidin-2-one] | – | – | good | good | –
CC(F)(F)COc1ccc([C@H]2CC(=O)N2c2ccc3[nH]cnc3c2)c(F)c1 [Example 11, (R)-4-(4-(2,2-difluoropropoxy)-2-fluorophenyl)-1-(1H-benzo[d]imidazol-5-yl)azetidin-2-one] | 8.89 | 8.42 | good | good | 165 to 170
CC(F)(F)COc1ccc([C@@H]2CC(=O)N2c2ccc3[nH]cnc3c2)c(F)c1 [Example 12, (S)-4-(4-(2,2-difluoropropoxy)-2-fluorophenyl)-1-(1H-benzo[d]imidazol-5-yl)azetidin-2-one] | – | – | – | – | 203 to 208
CC(F)(F)COc1ccc([C@H]2CC(=O)N2c2ccc3[nH]cnc3c2)c(F)c1F [Example 13, (R)-4-(4-(2,2-difluoropropoxy)-2,3-difluorophenyl)-1-(1H-benzo[d]imidazol-5-yl)azetidin-2-one] | 8.70 | 8.64 | good | good | 173 to 177
CC(F)(F)COc1ccc([C@@H]2CC(=O)N2c2ccc3[nH]cnc3c2)c(F)c1F [Example 14, (S)-4-(4-(2,2-difluoropropoxy)-2,3-difluorophenyl)-1-(1H-benzo[d]imidazol-5-yl)azetidin-2-one] | – | – | – | – | 170 to 174
CC(F)(F)COc1cc(F)c([C@H]2CC(=O)N2c2ccc3[nH]cnc3c2)c(F)c1 [Example 15, (R)-4-(4-(2,2-difluoropropoxy)-2,6-difluorophenyl)-1-(1H-benzo[d]imidazol-5-yl)azetidin-2-one] | 9.52 | 8.44 | good | good | 158 to 162
CC(F)(F)COc1cc(F)c([C@@H]2CC(=O)N2c2ccc3[nH]cnc3c2)c(F)c1 [Example 16, (S)-4-(4-(2,2-difluoropropoxy)-2,6-difluorophenyl)-1-(1H-benzo[d]imidazol-5-yl)azetidin-2-one] | – | – | – | – | 163 to 166
